Experimental data from patent US20230265116A1, “DEGRADATION OF (EGFR) BY CONJUGATION OF EGFR INHIBITORS WITH E3 LIGASE LIGAND AND METHODS OF USE” (BEIGENE, LTD., priority 2020, published 2023).

What was measured:
Type in all cases: cell-based
[1] = target: T1, EGFR L858R/T790M/C797S (BaF3-LTC cells) (Homo sapiens, UniProt P00533, C797S/L858R/T790M); test: EGFR degradation HTRF assay, BaF3-LTC cells; conditions: BaF3-LTC cells; for DC50: EGFR degradation, IC50 (DC50) from curve fit, read-out: DC50(nM) BaF3-LTC; for Dmax: maximum percentage of inhibition (degradation), read-out: Dmax (%) BaF3-LTC
T1 construct: expressed in transfected cells; host or cells: BaF3
Procedure, shortened: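 EGFR remaining after a 16 h, 37 °C exposure (8 doses, 5-fold steps from 10 uM final, 0.2% DMSO) was quantified by HTRF antibodies in cell lysate. Percent inhibition relative to DMSO control was fitted by four-parameter logistic to give DC50; Dmax denotes maximal degradation.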

[2] = system: EGFR Del19/T790M/C797S (H1975-clone #28); test: EGFR degradation HTRF assay, H1975-clone #28 DTC cells; conditions: H1975 # 28 DTC cells; for DC50: EGFR degradation, IC50 (DC50) from curve fit, read-out: DC50(nM) H1975 # 28 DTC; for Dmax (%) H1975 # 28 DTC: maximum percentage of inhibition (degradation)
Procedure, shortened: (§1)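 Compounds (top 10 uM, 5-fold, 8 points, 0.2% DMSO) incubated 16 h at 37 °C on homozygous clones: #23 Del19/C797S, #28 Del19/T790M/C797S, exogenous EGFR only in H1975. HTRF on lysates quantified remaining EGFR relative to DMSO; four-parameter fit gave DC50 and Dmax.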

[3] = system: EGFR Del19/C797S (H1975-clone #23); test: EGFR degradation HTRF assay, H1975-clone #23 DC cells; conditions: 16h treatment; for H1975 #23 DC Dmax (%): maximum percentage of degradation; for DC50: H1975 #23 DC, read-out: H1975 #23 DC DC50
Procedure, shortened: as §1

[4] = target: T2, EGFR L858R/C797S (BaF3 LC cells) (Homo sapiens, UniProt P00533, C797S/L858R); test: EGFR degradation HTRF assay, BaF3 LC cells; conditions: BaF3 LC, 16h treatment; for Dmax: maximum percentage of degradation, read-out: BaF3 LC Dmax (%); for DC50: read-out: BaF3 LC DC50
T2 construct: expressed in transfected cells; host or cells: BaF3
T2 sequence (P00533 25-1210 C797S/L858R): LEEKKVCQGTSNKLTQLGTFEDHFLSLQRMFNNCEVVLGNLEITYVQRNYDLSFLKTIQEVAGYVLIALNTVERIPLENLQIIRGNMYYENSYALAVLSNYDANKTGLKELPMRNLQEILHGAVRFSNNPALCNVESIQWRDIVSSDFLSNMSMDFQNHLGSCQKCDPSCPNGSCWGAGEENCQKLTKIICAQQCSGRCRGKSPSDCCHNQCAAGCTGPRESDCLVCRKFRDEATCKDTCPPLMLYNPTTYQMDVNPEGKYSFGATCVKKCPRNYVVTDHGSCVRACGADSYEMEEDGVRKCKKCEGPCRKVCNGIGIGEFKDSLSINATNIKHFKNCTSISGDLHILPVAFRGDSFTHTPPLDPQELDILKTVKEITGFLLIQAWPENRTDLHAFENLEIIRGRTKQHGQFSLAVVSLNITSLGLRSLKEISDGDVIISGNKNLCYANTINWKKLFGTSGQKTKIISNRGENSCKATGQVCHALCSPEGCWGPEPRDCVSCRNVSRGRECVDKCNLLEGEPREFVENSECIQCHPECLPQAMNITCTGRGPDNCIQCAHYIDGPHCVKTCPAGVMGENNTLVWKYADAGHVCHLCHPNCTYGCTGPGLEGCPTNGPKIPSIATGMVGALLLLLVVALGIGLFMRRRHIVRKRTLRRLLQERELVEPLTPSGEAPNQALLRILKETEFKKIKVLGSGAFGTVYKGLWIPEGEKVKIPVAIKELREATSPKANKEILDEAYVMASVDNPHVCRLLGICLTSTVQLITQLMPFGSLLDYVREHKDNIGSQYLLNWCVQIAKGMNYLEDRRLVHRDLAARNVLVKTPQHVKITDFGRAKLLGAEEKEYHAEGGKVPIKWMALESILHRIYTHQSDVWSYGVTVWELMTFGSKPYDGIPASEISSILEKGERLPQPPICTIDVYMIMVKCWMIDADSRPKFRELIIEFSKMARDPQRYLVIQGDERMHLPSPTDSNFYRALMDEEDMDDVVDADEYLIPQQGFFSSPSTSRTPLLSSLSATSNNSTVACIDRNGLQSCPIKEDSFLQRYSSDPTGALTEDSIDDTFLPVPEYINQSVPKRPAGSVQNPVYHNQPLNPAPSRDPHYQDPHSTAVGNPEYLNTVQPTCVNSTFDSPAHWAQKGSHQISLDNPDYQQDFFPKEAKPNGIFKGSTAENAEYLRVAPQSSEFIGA

T1 sequence (P00533 25-1210 T790M/C797S/L858R): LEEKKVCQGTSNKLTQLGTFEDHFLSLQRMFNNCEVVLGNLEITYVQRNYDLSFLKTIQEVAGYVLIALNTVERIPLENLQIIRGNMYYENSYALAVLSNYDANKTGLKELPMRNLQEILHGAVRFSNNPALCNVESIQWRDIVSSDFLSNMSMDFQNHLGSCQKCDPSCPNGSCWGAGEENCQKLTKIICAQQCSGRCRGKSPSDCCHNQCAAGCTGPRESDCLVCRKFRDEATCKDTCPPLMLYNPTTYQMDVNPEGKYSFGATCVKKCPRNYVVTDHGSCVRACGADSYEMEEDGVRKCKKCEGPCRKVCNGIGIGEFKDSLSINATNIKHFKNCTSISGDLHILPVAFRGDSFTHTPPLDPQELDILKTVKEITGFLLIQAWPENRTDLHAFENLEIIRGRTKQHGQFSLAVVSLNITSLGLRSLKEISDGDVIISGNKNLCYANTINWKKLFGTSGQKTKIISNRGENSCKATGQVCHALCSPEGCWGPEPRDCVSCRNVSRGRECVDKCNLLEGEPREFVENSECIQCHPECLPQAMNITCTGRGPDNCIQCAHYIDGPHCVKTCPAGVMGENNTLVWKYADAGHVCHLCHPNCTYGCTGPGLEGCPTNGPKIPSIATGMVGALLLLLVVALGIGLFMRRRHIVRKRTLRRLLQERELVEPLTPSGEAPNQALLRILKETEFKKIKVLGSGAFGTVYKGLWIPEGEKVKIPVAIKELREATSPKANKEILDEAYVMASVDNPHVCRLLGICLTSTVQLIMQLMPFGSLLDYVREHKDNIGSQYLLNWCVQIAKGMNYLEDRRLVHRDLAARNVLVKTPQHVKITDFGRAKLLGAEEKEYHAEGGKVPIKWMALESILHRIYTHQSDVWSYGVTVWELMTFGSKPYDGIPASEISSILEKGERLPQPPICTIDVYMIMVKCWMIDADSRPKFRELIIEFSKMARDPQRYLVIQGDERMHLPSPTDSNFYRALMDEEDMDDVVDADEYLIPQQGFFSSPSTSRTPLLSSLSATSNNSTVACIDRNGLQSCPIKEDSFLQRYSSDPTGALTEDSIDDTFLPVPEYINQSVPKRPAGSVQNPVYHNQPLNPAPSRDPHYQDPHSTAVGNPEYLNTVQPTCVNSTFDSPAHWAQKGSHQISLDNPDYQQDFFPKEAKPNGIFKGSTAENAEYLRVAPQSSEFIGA

Row | DC50 [1] [nM] | Dmax [1] [%] | DC50 [2] [nM] | DC50 [3] [nM] | Dmax [4] [%] | DC50 [4] [nM] | Compound | Dmax (%) H1975 # 28 DTC [2] [%] | H1975 #23 DC Dmax (%) [3] [%]
1 | 2.42 | 84.8 | 0.413 | 1.11 | 92 | 1.11 | CCOc1cc(N2CCC(N3CCN(CCc4ccc5c(c4)oc(=O)n5C4CCC(=O)NC4=O)CC3)CC2)c(CC)cc1Nc1ncc(Br)c(Nc2cc(F)c3nc(CC)ccc3c2P(C)(C)=O)n1 (stereo not drawn) [Example 500, 3-(6-(2-(4-(1-(4-((5-bromo-4-((5-(dimethylphosphoryl)-2-ethyl-8-fluoroquinolin-6-yl)amino)pyrimidin-2-yl)amino)-5-ethoxy-2-ethylphenyl)piperidin-4-yl)piperazin-1-yl)ethyl)-2-oxobenzo[d]oxazol-3(2H)-yl)piperidine-2,6-dione] | 71.9 | 55.74
2 | 2.46 | 84.5 | 1.92 | > 16 | 92.7 | 1.94 | CCOc1cc(N2CCC(N3CCN(CCc4cc5oc(=O)n(C6CCC(=O)NC6=O)c5cc4C)CC3)CC2)c(CC)cc1Nc1ncc(Br)c(Nc2ccc3nc(CC)ccc3c2P(C)(C)=O)n1 (stereo not drawn) [Example 465, 3-(6-(2-(4-(1-(4-((5-bromo-4-((5-(dimethylphosphoryl)-2-ethylquinolin-6-yl)amino)pyrimidin-2-yl)amino)-5-ethoxy-2-ethylphenyl)piperidin-4-yl)piperazin-1-yl)ethyl)-5-methyl-2-oxobenzo[d]oxazol-3(2H)-yl)piperidine-2,6-dione] | 70.68 | 48.97
3 | 13.4 |  | 3.22 | 5.6 |  | 36.1 | CCc1ccc2c(P(C)(C)=O)c(Nc3nc(Nc4cc(CC)c(N5CCC(N6CCN(C(=O)[C@H]7CN(c8cc(F)c([C@H]9CCC(=O)NC9=O)c(F)c8)CC7(C)C)CC6)CC5)cc4OC)ncc3Br)ccc2n1 [Example 754, (R)-3-(4-((R)-4-(4-(1-(4-((5-bromo-4-((5-(dimethylphosphoryl)-2-ethylquinolin-6-yl)amino)pyrimidin-2-yl)amino)-2-ethyl-5-methoxyphenyl)piperidin-4-yl)piperazine-1-carbonyl)-3,3-dimethylpyrrolidin-1-yl)-2,6-difluorophenyl)piperidine-2,6-dione] | 86.62 | 71.73
4 | 5.25 |  | 2.22 | 4.02 |  | 10.1 | CCc1cc(Nc2ncc(Br)c(Nc3ccc4nc(C)ccc4c3P(C)(C)=O)n2)c(OC)cc1N1CCC(N2CCN(C(=O)[C@H]3CN(c4cc(F)c([C@H]5CCC(=O)NC5=O)c(F)c4)CC3(C)C)CC2)CC1 [Example 487, (R)-3-(4-((R)-4-(4-(1-(4-((5-bromo-4-((5-(dimethylphosphoryl)-2-methylquinolin-6-yl)amino)pyrimidin-2-yl)amino)-2-ethyl-5-methoxyphenyl)piperidin-4-yl)piperazine-1-carbonyl)-3,3-dimethylpyrrolidin-1-yl)-2,6-difluorophenyl)piperidine-2,6-dione] | 85.45 | 74.41
5 | 3.63 | 97.3 | 0.632 | 1.58 | 83.9 | 14.9 | CCc1cc(Nc2ncc(Br)c(Nc3ccc4c(=O)n(C)ncc4c3P(C)(C)=O)n2)c(OC)cc1N1CCC(N2CCN(C(=O)[C@@H]3CCN(c4cc(F)c([C@H]5CCC(=O)NC5=O)c(F)c4)C3)CC2)CC1 [Example 528, (R)-3-(4-((R)-3-(4-(1-(4-((5-bromo-4-((5-(dimethylphosphoryl)-2-methyl-1-oxo-1,2-dihydrophthalazin-6-yl)amino)pyrimidin-2-yl)amino)-2-ethyl-5-methoxyphenyl)piperidin-1)piperazine-1-carbonyl)pyrrolidin-1-yl)2,6-difluorophenyl)piperidine-2,6-dione] | 86.11 | 54.87
6 | 7.8 | 88.8 | 2.81 | 4.91 | 82.7 | 20.3 | CCOc1cc(N2CCC(N3CCN(CC4CN(c5cc(F)cc6c5oc(=O)n6C5CCC(=O)NC5=O)C4)CC3)CC2)c(CC)cc1Nc1ncc(Br)c(Nc2ccc3nc(CC)ccc3c2P(C)(C)=O)n1 (stereo not drawn) [Example 479, 3-(7-(3-((4-(1-(4-((5-bromo-4-((5-(dimethylphosphoryl)-2-ethylquinolin-6-yl)amino)pyrimidin-2-yl)amino)-5-ethoxy-2-ethylphenyl)piperidin-4-yl)piperazin-1-yl)methyl)azetidin-1-yl)-5-fluoro-2-oxobenzo[d]oxazol-3(2H)-yl)piperidine-2,6-dione] | 95.6 | 76.53
7 | 4.2 | 93.7 | 0.749 | 2.16 | 90.2 | 10.2 | CCOc1cc(N2CCC(N3CCN(CCc4cc(F)c([C@H]5CCC(=O)NC5=O)c(F)c4)CC3)CC2)c(CC)cc1Nc1ncc(Br)c(Nc2cc(F)c3nc(C)ccc3c2P(C)(C)=O)n1 [Example 534, (R)-3-(4-(2-(4-(1-(4-((5-bromo-4-((5-(dimethylphosphoryl)-8-fluoro-2-methylquinolin-6-yl)amino)pyrimidin-2-yl)amino)-5-ethoxy-2-ethylphenyl)piperidin-4-yl)piperazin-1-yl)ethyl)-2,6-difluorophenyl)piperidine-2,6-dione] | 83.48 | 80.71
8 | 7.03 | 96.4 | 1.55 | 9.42 | 83.5 | 51.8 | CCOc1cc(N2CCC(N3CCN(C(=O)[C@@H]4CCN(c5cc(F)c([C@H]6CCC(=O)NC6=O)c(F)c5)C4)CC3)CC2)c(CC)cc1Nc1ncc(Br)c(Nc2ccc3nc(C)ccc3c2P(C)(C)=O)n1 [Example 531, (R)-3-(4-((R)-3-(4-(1-(4-((5-bromo-4-((5-(dimethylphosphoryl)-2-methylquinolin-6-yl)amino)pyrimidin-2-yl)amino)-5-ethoxy-2-ethylphenyl)piperidin-4-yl)piperazine-1-carbonyl)pyrrolidin-1-yl)-2,6-difluorophenyl)piperidine-2,6-dione] | 74.06 | 53.36
9 | 6.34 |  | 1 | 1.76 |  | 2.23 | CCOc1cc(N2CCC(N3CCN(CCc4cccc5c4n(C)c(=O)n5C4CCC(=O)NC4=O)CC3)CC2)c(CC)cc1Nc1ncc(Br)c(Nc2ccc3nc(CC)ccc3c2P(C)(C)=O)n1 (stereo not drawn) [Example 752, 3-(4-(2-(4-(1-(4-((5-bromo-4-((5-(dimethylphosphoryl)-2-ethylquinolin-6-yl)amino)pyrimidin-2-yl)amino)-5-ethoxy-2-ethylphenyl)piperidin-4-yl)piperazin-1-yl)ethyl)-3-methyl-2-oxo-2,3-dihydro-1H-benzo[d]imidazol-1-yl)piperidine-2,6-dione] | 77.12 | 78.99
